In ChEMBL document CHEMBL6109091, “Integrated computational and biosensor-based strategies for the discovery of allosteric SMYD3 ligands using diperodon as a starting point” (Bioorg Med Chem, 2025):

Target: T1, Histone-lysine N-methyltransferase SMYD3 (Homo sapiens, UniProt Q9H7B4)
T1 sequence (Q9H7B4 whole entry): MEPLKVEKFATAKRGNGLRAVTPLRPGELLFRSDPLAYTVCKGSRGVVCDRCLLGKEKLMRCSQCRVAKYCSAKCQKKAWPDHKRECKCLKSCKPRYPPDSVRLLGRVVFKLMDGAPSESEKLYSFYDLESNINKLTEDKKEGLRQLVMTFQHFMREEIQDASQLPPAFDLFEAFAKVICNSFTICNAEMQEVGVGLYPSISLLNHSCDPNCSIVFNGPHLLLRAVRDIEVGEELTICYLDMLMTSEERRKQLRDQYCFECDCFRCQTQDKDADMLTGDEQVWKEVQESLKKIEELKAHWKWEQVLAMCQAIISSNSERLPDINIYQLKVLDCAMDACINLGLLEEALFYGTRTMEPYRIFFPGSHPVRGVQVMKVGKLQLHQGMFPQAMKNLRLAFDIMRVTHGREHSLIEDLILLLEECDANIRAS
Assay: Binding affinity to SMYD3 (unknown origin) assessed as dissociation constant by GCI biosensor based analysis

Row | Structure (SMILES) | Kd [µM]
1 | Cc1cc(NC(=O)CCCNC(=O)c2ccsc2)no1 | ~210
2 | Cc1ccsc1C(Cc1ccccc1)NC(=O)Cn1cncn1 (stereo unspecified) | ~130
3 | CCC(C(=O)NC1CCCC1)N(C)Cc1ncc(C)[nH]1 (stereo unspecified) | ~180
4 | O=CNc1ccccc1 [FORMANILIDE] | ~80

These reach a lower Kd. Values come first.

Row | Kd [µM] | Structure (SMILES)
5 | ~3 | Cc1cc(N2CCC(NC(C)c3sccc3C)C2=O)n(C)n1 (stereo unspecified)
6 | ~0.4 | Cc1cccc(C)c1NC(=O)CN1CCCC1c1ccccc1 (stereo unspecified)
